# Measured values published in US4191753A, “Anti-hypertensive peptide analogs” (University of Miami, priority 1978, dated 1980).
# Where a SMILES comes first, the peptide text is derived from it.
# Tests used:
# [1] = system: patients; details: cited from earlier work
# [2] = cited from earlier work
# [3] = biological target: T1, human urinary angiotensin converting enzyme (Homo sapiens, UniProt P12821); experiment: Inhibition of hydrolysis of [3H]benzoyl-Gly-His-Leu by human urinary angiotensin converting enzyme; format: biochemical; details: [3H]benzoyl-Gly-His-Leu 100 μM (approximately one-half of Km), 37° C., 15 min., pH 8.0; read-out: I50
# T1 construct: human urinary angiotensin converting enzyme, prepared as described by Ryan, J., et al; from tissue; host or cells: human urine
# Method: ΔPro^3 -BPP9a, ΔPro^5 -BPP9a, ΔPro^8 -BPP9a, and ΔPro^9 -BPP9a were each compared with BPP9a (<Glu-Trp-Pro-Arg-Pro-Gln-Ile-Pro-Pro; also known as SQ 20,881) for their abilities to inhibit the hydrolysis of [^3 H]benzoyl-Gly-His-Leu by human urinary angiotensin converting enzyme, prepared as described by Ryan, J., et al., Tissue and Cell 10, 555 (1978). A standard amount of enzyme (the amount required to hydrolyze 8% of substrate during the course of incubation at 37° C. for 15 min.) was incubated with [^3 H]benzoyl-Gly-His-Leu in a final reaction volume of 100 μl or 110 μl. The reaction mixture contained 0.05 M Hepes buffer, pH 8.0, 0.1 M NaCl, 0.75 M Na2 SO4, [^3 H]-benzoyl-Gly-His-Leu (100 μM at 10 mCi/mmole, enzyme and varying concentrations of inhibitor, from […]. Net enzyme activity was measured in terms of the rate of formation of [^3 H]benzoyl-glycine (^3 H-hippuric acid). Under the conditions of the assay, the initial substrate concentration is approximately one-half of Km. Results are expressed as I50 values, i.e., the concentration of a given inhibitor required to reduce enzyme activity by half.
# These factors include the source of enzyme, its purity, the substrate used and its concentration, and the composition of the assay buffer. […] For example, Cushman, et al., supra, reported an I50 value for BPP9a of approximately 1000 nM, whereas Dorer, F.E., et al., Biochim. Biophys. Acta 429, 220 (1976) reported I50 values in the range 12nM-15nM. The sources of such variations are not known.
# [4] = biological target: ACE (Homo sapiens, UniProt P12821); experiment: biochemical
# [5] = biological target: T2, ACE (Oryctolagus cuniculus, UniProt P12822); details: read-out: I50 reported by Cushman, et al.; literature value; cited from earlier work
# T2 sequence (P12822 34-1310): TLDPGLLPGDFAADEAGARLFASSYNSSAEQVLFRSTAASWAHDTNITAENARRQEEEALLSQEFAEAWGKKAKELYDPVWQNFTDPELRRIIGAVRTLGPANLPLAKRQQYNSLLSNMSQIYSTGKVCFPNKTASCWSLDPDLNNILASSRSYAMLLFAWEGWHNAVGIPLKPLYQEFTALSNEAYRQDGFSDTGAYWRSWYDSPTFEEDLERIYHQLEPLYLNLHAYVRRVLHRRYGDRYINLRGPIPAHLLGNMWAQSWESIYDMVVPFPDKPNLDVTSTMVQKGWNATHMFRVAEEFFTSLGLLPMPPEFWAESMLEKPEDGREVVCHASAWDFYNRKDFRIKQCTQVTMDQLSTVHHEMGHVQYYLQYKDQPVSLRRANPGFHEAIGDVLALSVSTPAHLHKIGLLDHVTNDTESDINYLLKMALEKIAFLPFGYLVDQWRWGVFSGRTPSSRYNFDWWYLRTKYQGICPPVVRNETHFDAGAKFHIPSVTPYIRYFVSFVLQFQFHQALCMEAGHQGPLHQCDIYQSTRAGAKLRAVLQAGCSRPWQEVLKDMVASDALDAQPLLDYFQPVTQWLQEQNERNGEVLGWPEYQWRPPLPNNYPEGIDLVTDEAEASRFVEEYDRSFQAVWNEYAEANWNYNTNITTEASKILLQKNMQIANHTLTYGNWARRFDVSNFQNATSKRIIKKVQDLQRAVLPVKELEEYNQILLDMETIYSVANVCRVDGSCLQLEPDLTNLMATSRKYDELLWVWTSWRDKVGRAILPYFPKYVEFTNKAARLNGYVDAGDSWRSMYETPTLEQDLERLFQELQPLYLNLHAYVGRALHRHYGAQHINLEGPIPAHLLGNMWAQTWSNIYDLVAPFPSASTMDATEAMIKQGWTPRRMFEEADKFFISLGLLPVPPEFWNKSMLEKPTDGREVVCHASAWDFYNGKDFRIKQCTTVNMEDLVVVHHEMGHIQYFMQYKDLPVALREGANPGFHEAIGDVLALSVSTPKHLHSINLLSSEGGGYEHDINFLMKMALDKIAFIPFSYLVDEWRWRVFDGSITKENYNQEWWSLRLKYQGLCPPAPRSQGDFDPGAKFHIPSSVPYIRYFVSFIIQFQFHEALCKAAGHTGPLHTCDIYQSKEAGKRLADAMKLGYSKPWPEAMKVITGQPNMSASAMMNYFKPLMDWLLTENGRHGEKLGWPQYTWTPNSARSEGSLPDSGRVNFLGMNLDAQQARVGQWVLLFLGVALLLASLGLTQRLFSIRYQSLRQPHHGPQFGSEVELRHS
# [6] = system: patients with hypertension; details: cited from earlier work
# [7] = system: guinea pigs; experiment: Mean arterial blood pressure of guinea pigs anesthetized with pentobarbital; format: in vivo, guinea pig; details: single intravenous injection, 2 mg; for ill effects in test animals: blood pressure reduced to shock levels; for abnormalities in the electrocardiogram: Lead II monitored
# Method: ΔPro^3 -BPP9a and ΔPro^5 -BPP9a were tested for their ability to reduce mean arterial blood pressure of guinea pigs anesthetized with pentobarbital, an anesthetic thought to activate the renin-angiotensin system. Female guinea pigs (500-700 g body wgt.) of the Ft. Detrick-Hartley strain were injected intraperitoneally with pentobarbital, 30 mg/kg. Tracheostomy was performed, and the animals were ventilated with a small animal respirator. A polyethylene cannula was inserted into a femoral vein, and heparin, 1,000 units, was injected. A second cannula was inserted into a femoral artery for measurement of arterial blood pressure. The arterial cannula was connected to a pressure transducer, and the transducer was connected to a polygraph. Lead II of the electrocardiogram was monitored continuously.
# Each of three guinea pigs received a single intravenous injection of ΔPro^3 -BPP9a, 2 mg in 0.25 ml of 0.9% (w/v) NaCl. On average, mean arterial blood pressure fell by 57.2% (81.7 mmHg to 35 mmHg). The maximum reduction was achieved within 15 sec. of injection. Each of seven guinea pigs received a single intravenous injection of ΔPro^5 -BPP9a, 2 mg in 0.25 ml of saline.
# T1 sequence (P12821 30-1306): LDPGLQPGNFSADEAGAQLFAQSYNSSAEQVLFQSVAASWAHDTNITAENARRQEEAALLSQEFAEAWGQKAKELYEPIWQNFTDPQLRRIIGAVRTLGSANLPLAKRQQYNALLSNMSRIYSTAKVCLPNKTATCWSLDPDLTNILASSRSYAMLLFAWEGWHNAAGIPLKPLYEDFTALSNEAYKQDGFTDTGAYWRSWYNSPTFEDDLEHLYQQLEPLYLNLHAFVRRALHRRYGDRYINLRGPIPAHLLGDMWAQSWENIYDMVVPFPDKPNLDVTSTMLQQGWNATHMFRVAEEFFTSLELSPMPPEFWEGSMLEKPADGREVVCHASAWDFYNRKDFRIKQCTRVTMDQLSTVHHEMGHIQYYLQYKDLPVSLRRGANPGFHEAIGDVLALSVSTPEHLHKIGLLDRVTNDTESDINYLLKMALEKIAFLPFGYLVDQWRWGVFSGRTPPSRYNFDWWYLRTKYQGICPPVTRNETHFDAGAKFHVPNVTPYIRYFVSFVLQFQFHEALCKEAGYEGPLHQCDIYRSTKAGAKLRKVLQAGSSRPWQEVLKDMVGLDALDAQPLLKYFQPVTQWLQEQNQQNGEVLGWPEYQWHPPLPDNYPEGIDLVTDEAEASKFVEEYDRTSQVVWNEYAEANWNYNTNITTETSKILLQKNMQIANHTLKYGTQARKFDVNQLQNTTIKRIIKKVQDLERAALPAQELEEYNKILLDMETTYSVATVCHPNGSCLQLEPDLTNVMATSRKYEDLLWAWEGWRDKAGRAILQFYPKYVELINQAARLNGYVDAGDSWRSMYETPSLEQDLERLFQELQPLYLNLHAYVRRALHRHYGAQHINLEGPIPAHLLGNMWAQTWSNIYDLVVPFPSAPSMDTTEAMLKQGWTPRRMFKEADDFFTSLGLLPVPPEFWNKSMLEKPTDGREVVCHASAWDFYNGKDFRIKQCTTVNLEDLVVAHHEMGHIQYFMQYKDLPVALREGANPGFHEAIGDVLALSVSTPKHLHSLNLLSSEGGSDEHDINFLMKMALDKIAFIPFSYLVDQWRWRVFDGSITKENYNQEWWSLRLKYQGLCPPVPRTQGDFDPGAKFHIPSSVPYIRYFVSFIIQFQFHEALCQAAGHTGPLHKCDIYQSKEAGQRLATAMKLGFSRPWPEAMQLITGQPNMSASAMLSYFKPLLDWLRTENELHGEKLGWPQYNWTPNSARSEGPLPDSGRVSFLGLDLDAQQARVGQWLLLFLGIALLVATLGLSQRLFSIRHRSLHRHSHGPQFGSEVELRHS
# Sequence of ACE (Homo sapiens, UniProt P12821) (P12821 30-1306, species assumed): as the sequence (P12821 30-1306) above
smiles,measurement,setting,value
"C[C@H](CS)C(=O)N1CCCC1C(=O)O (stereo in doubt) [SQ 14,225, D-2-methyl-3-mercaptopropanoyl-L-proline]",patients known to benefit from ACE inhibitors who respond adversely,"[1]; human, in vivo",≤ 11%
same,oral effectiveness,[1]; oral,effective orally
same,stability in solution,[2],instability of the drug in solution due to disulfide dimer formation
"CC[C@H](C)[C@H](NC(=O)[C@H](CCC(N)=O)NC(=O)[C@@H]1CCCN1C(=O)[C@H](CCCNC(=N)N)NC(=O)[C@@H]1CCCN1C(=O)[C@H](Cc1c[nH]c2ccccc12)NC(=O)[C@@H]1CCC(=O)N1)C(=O)N1CCC[C@H]1C(=O)N1CCC[C@H]1C(=O)O [BPP9a, <Glu-Trp-Pro-Arg-Pro-Gln-Ile-Pro-Pro]",IC50,[3],28 nM
same,IC50,[4],~28 nM
same,IC50,[5],~1000 nM
same,"side reactions of the type observed with SQ 14,225, in clinical use of BPP9a",[6],have not been encountered previously
"NC(N)=NCCC[C@H](NC(=O)[C@H](Cc1ccccc1)NC(=O)[C@@H]1CCCN1C(=O)[C@H](CO)NC(=O)[C@H](Cc1ccccc1)NC(=O)CNC(=O)[C@@H]1CCCN1C(=O)[C@@H]1CCCN1C(=O)[C@@H](N)CCCN=C(N)N)C(=O)O [bradykinin, ArgProProGlyPheSerProPheArg] (H-RPPGFSPFR-OH)",IC50,[4],~500 nM
"CC[C@H](C)[C@H](NC(=O)[C@H](CCC(N)=O)NC(=O)[C@@H]1CCCN1C(=O)[C@H](CCCNC(=N)N)NC(=O)[C@@H]1C=CCN1C(=O)[C@H](Cc1c[nH]c2ccccc12)NC(=O)[C@@H]1CCC(=O)N1)C(=O)N1CCC[C@H]1C(=O)N1CCC[C@H]1C(=O)O [ΔPro^3 -BPP9a, <Glu-Trp-ΔPro-Arg-Pro-Gln-Ile-Pro-Pro]",IC50,[3],0.9 nM
same,increase in heart rate,[7],0-10%
same,ill effects in test animals,[7],no ill effects
same,abnormalities in the electrocardiogram,[7],no abnormalities were observed
"CC[C@H](C)[C@H](NC(=O)[C@H](CCC(N)=O)NC(=O)[C@@H]1C=CCN1C(=O)[C@H](CCCNC(=N)N)NC(=O)[C@@H]1CCCN1C(=O)[C@H](Cc1c[nH]c2ccccc12)NC(=O)[C@@H]1CCC(=O)N1)C(=O)N1CCC[C@H]1C(=O)N1CCC[C@H]1C(=O)O [ΔPro^5 -BPP9a, <Glu-Trp-Pro-Arg-ΔPro-Gln-Ile-Pro-Pro]",IC50,[3],0.9 nM
same,increase in heart rate,[7],0-10%
same,ill effects in test animals,[7],no ill effects
same,abnormalities in the electrocardiogram,[7],no abnormalities were observed
"CC[C@H](C)[C@H](NC(=O)[C@H](CCC(N)=O)NC(=O)[C@@H]1CCCN1C(=O)[C@H](CCCNC(=N)N)NC(=O)[C@@H]1CCCN1C(=O)[C@H](Cc1c[nH]c2ccccc12)NC(=O)[C@@H]1CCC(=O)N1)C(=O)N1CC=C[C@H]1C(=O)N1CCC[C@H]1C(=O)O [ΔPro^8 -BPP9a, <Glu-Trp-Pro-Arg-Pro-Gln-Ile-ΔPro-Pro]",IC50,[3],60 nM
"CC[C@H](C)[C@H](NC(=O)[C@H](CCC(N)=O)NC(=O)[C@@H]1CCCN1C(=O)[C@H](CCCNC(=N)N)NC(=O)[C@@H]1CCCN1C(=O)[C@H](Cc1c[nH]c2ccccc12)NC(=O)[C@@H]1CCC(=O)N1)C(=O)N1CCC[C@H]1C(=O)N1CC=C[C@H]1C(=O)O [ΔPro^9 -BPP9a, <Glu-Trp-Pro-Arg-Pro-Gln-Ile-Pro-ΔPro]",IC50,[3],0.15 nM
